Reference: patent publication US8232315B2, “Methods for treating drug addiction and improving addiction-related behavior” (SK Biopharmaceuticals Co., Ltd., priority 2009, dated 2012)
Entries after “also recorded” stand apart in the source; their conditions may differ. Where two headings read alike, the source gives them in different places.

Tested on: monkeys trained to discriminate cocaine (0.40 mg/kg) from saline
Assay: Cocaine drug discrimination (substitution protocol) in rhesus monkeys
Type: in vivo, rhesus monkeys (Macaca mulatta)
Conditions: for ED50: Primates, in Macaca mulatta, cumulative dosing, read-out: ED50 in producing cocaine-appropriate responding; for Effect on response rates: substituting doses of test compound / training dose of cocaine, relative to saline control
Source text: Subjects: The subjects were four male rhesus monkeys (Macaca mulatta) each weighing 7.0-8.0 kg. Each monkey was maintained on a diet of 7-12 monkey biscuits (Purina Monkey Chow Jumbo #5037) and one piece of fresh fruit per day. During the week, all food was delivered after the experimental session, whereas on weekends, food was delivered between 9 a.m. and noon. Water was freely available at all times. The room in which the monkeys were housed was maintained on a 12-hr light/dark cycle, with lights on from 7 a.m. to 7 p.m.
Apparatus: Each monkey was housed individually in a well-ventilated, stainless steel chamber (56×71×69 cm). The home cages of all monkeys were modified to include an operant panel (28×28 cm) mounted on the front wall. Three square translucent response keys (6.4×6.4 cm) were arranged 2.54 cm apart in a horizontal row 3.2 cm from the top of the operant panel. Each key could be transilluminated by red or green stimulus lights (Superbright LED'S). In addition, the operant panel supported an externally mounted pellet dispenser (Gerbrands, Model G53 10, Arlington, Mass.) that delivered 1 gm fruit-flavored food pellets (Precision Primate Pellets Formula L/I Banana Flavor, P. J. Noyes Co., Lancaster, N.H.) to a food receptacle mounted on the cage beneath the operant response panel. Operation of the operant panels and data collection were accomplished with IBM-compatible computers and interface systems (MedAssociates; St. Albans, Vt.) located in a separate room.
Discrimination Training: Discrimination training was conducted 5 days per week during daily sessions composed of multiple cycles. Each cycle consisted of a 15-min time-out period followed by a 5-min response period. During the time-out, all stimulus lights were off, and responding had no scheduled consequences. During the response period, the right and left response keys were transilluminated red or green, and monkeys could earn up to 10 food pellets by responding under a FR 30 schedule of food presentation. For all four monkeys in this study, the left key was illuminated green, and the right key was illuminated red. The center key was not illuminated at any time, and responding on the center key had no scheduled consequences. If all available food pellets were delivered before the end of the 5-min response period, the stimulus lights transilluminating the response keys were turned off, and responding had no scheduled consequences for the remainder of the 5-min period.
On training days, monkeys were given an i.m. injection of either saline or 0.40 mg/kg cocaine 5-min after the beginning of each time-out period (i.e., 10 min before the response period). Following the administration of saline, responding on only the green key (the saline-appropriate key) produced food, whereas following administration of 0.40 mg/kg cocaine, only responding on the red key (the drug-appropriate key) produced food. Responses on the inappropriate key reset the FR requirement on the appropriate key. Sessions consisted of 1 to 5 cycles, and if the training dose of cocaine was administered, it was administered only during the last cycle. Thus, training days consisted of 0 to 5 saline cycles followed by 0 to 1 drug cycles.
During each response period, 3 dependent variables were determined using the following equations.
1) Percent injection-appropriate responding prior to delivery of the first reinforcer.
2) Percent injection-appropriate responding for the entire response period.
Monkeys were considered to have acquired cocaine discrimination when the following three criteria were met for 7 of 8 consecutive training sessions: 1) the percent injection-appropriate responding prior to delivery of the first reinforcer was greater than or equal to 80% for all cycles; 2) the percent injection-appropriate responding for the entire cycle was greater than or equal to 90% for all cycles; 3) response rates during saline training cycles were greater than 0.5 responses per second. […]

`NC(=O)OC[C@H](N)Cc1ccccc1` [test compound, O-carbamoyl-(D)-phenylalaminol] showed an ED50 (monkey 92N012) of 1.8 mg/kg, an ED50 (monkey 153F) of 5.6 mg/kg and an ED50 (monkey 186F) of 13.4 mg/kg. For the same compound, the ED50 (monkey L958) was 5.6 mg/kg, the Overt behavioral effects (across the dose range tested (0.1-18 mg/kg)) was “did not produce noticeable overt behavioral effects” and the “Substitution for the cocaine training stimulus” value (all four monkeys, 0.1-18 mg/kg) was “dose-dependent and complete substitution; also recorded: substituted completely”. The “Effect on response rates” value (monkey 92N012) was “increased response rates”, the “Effect on response rates” value (monkey 153F) was “decreased response rates” and the “Effect on response rates” value (monkey 186F) was “had no effect on response rates”. For the same compound, the “Potency relative to cocaine (fold less potent)” value (rhesus monkeys, cocaine-like behavioral effects) was “approximately 20 fold”.
